Data as given in patent USRE48461E1, “Modulation of androgen receptor expression” (Ionis Pharmaceuticals, Inc., priority 2012, dated 2021).
Oligonucleotides are written 5' to 3', each unit as a sugar letter and its base; * is a phosphorothioate linkage, no mark a phosphodiester; rarer units and linkages stand in square brackets, end groups in braces. Plain capitals give the bases only. k = constrained ethyl (cEt); d = 2'-deoxy (DNA)

Legend:
[1] = cynomolgus monkey, in vivo, sc, 40 mg/kg
[2] = system: AR mRNA; assay: Dose-dependent antisense inhibition of human AR in HuVEC cells (electroporation, qRT-PCR RTS3559, IC50); format: cell-based
In short: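 HuVEC cells dosed with antisense oligonucleotides by electroporation and treated approximately 16 hours. AR mRNA quantified by real-time qPCR with primer probe set RTS3559 and normalised to total RNA by RIBOGREEN; IC50 from dose-response.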

Question: For “TGATTTAATGGTTGCA [ISIS 569236] (cEt/MOE gapmer chemistry, further chemistry not given here)”, which HCT [1] is on record?
Answer: 44%

Question: What about the Hemoglobin [1] of the same substance?
Answer: 13.1 g/dL

Question: What about the Platelets [1] of the same substance?
Answer: 358000 µL

Question: What about the RBC [1] of the same substance?
Answer: 5.7e+06 µL

Question: And the WBC [1]?
Answer: 14400 µL

Question: What does the source list for “549458 (kG*kT*kT*dG*dA*dT*dT*dT*dA*dA*dT*dG*dG*kT*kT*kG) [compound 549458]”?
Answer: percent inhibition of AR ([2]; 31.25 nM, HuVEC, ~16 h, Table 6): 15%; percent inhibition of AR ([2]; 31.25 nM, HuVEC, ~16 h, Table 8): 30%; percent inhibition of AR ([2]; 31.25 nM, HuVEC, ~16 h, Table 14): 0%; percent inhibition of AR ([2]; 46.9 nM, HuVEC, ~16 h, Table 15): 15%; percent inhibition of AR ([2]; 55.6 nM, HuVEC, ~16 h, Table 4): 48%; percent inhibition of AR ([2]; 62.5 nM, HuVEC, ~16 h, Table 6): 25%; percent inhibition of AR ([2]; 62.5 nM, HuVEC, ~16 h, Table 8): 36%; percent inhibition of AR ([2]; 62.5 nM, HuVEC, ~16 h, Table 10): 25%; percent inhibition of AR ([2]; 62.5 nM, HuVEC, ~16 h, Table 11): 16%; percent inhibition of AR ([2]; 62.5 nM, HuVEC, ~16 h, Table 12): 19%; percent inhibition of AR ([2]; 62.5 nM, HuVEC, ~16 h, Table 14): 19%; percent inhibition of AR ([2]; 125.0 nM, HuVEC, ~16 h, Table 6): 47%; percent inhibition of AR ([2]; 125.0 nM, HuVEC, ~16 h, Table 8): 54%; percent inhibition of AR ([2]; 125.0 nM, HuVEC, ~16 h, Table 10): 46%; percent inhibition of AR ([2]; 125.0 nM, HuVEC, ~16 h, Table 11): 22%; percent inhibition of AR ([2]; 125.0 nM, HuVEC, ~16 h, Table 12): 22%; percent inhibition of AR ([2]; 125.0 nM, HuVEC, ~16 h, Table 14): 40%; percent inhibition of AR ([2]; 166.7 nM, HuVEC, ~16 h, Table 4): 84%; percent inhibition of AR ([2]; 187.5 nM, HuVEC, ~16 h, Table 15): 50%; percent inhibition of AR ([2]; 500.0 nM, HuVEC, ~16 h, Table 4): 97%; percent inhibition of AR ([2]; 500.0 nM, HuVEC, ~16 h, Table 6): 88%; percent inhibition of AR ([2]; 500.0 nM, HuVEC, ~16 h, Table 8): 85%; percent inhibition of AR ([2]; 500.0 nM, HuVEC, ~16 h, Table 10): 64%; percent inhibition of AR ([2]; 500.0 nM, HuVEC, ~16 h, Table 11): 64%; percent inhibition of AR ([2]; 500.0 nM, HuVEC, ~16 h, Table 12): 38%; percent inhibition of AR ([2]; 500.0 nM, HuVEC, ~16 h, Table 14): 74%; percent inhibition of AR ([2]; 750.0 nM, HuVEC, ~16 h, Table 15): 85%; percent inhibition of AR ([2]; 1000.0 nM, HuVEC, ~16 h, Table 6): 93%; percent inhibition of AR ([2]; 1000.0 nM, HuVEC, ~16 h, Table 8): 90%; percent inhibition of AR ([2]; 1000.0 nM, HuVEC, ~16 h, Table 10): 78%; percent inhibition of AR ([2]; 1000.0 nM, HuVEC, ~16 h, Table 11): 74%; percent inhibition of AR ([2]; 1000.0 nM, HuVEC, ~16 h, Table 12): 71%; percent inhibition of AR ([2]; 1000.0 nM, HuVEC, ~16 h, Table 14): 90%; percent inhibition of AR ([2]; 1500.0 nM, HuVEC, ~16 h, Table 4): 98%; percent inhibition of AR ([2]; 3000.0 nM, HuVEC, ~16 h, Table 15): 96%; IC50 ([2]; HuVEC cells, electroporation): 190 nM; inhibition of AR mRNA at 46.9 nM ([2]; HuVEC cells, electroporation, 46.9 nM ASO): 15%; inhibition of AR mRNA at 187.5 nM ([2]; HuVEC cells, electroporation, 187.5 nM ASO): 50%; inhibition of AR mRNA at 750.0 nM ([2]; HuVEC cells, electroporation, 750.0 nM ASO): 85%; inhibition of AR mRNA at 3000.0 nM ([2]; HuVEC cells, electroporation, 3000.0 nM ASO): 96%; IC50 ([2]; HuVEC, ~16 h, Table 4): 57 nM; IC50 ([2]; HuVEC, ~16 h, Table 6): 100 nM; IC50 ([2]; HuVEC, ~16 h, Table 8): 100 nM; IC50 ([2]; HuVEC, ~16 h, Table 10): 203 nM; IC50 ([2]; HuVEC, ~16 h, Table 11): 324 nM; IC50 ([2]; HuVEC, ~16 h, Table 12): 470 nM; IC50 ([2]; HuVEC, ~16 h, Table 14): 196 nM; IC50 ([2]; HuVEC, ~16 h, Table 15): 190 nM; percent inhibition of AR, 46.9 nM ([2]; Table 29, 46.9 nM, HuVEC, electroporation, approximately 16 hours): 21%; percent inhibition of AR, 187.5 nM ([2]; Table 29, 187.5 nM, HuVEC, electroporation, approximately 16 hours): 72%; percent inhibition of AR, 750.0 nM ([2]; Table 29, 750.0 nM, HuVEC, electroporation, approximately 16 hours): 91%; percent inhibition of AR, 3000.0 nM ([2]; Table 29, 3000.0 nM, HuVEC, electroporation, approximately 16 hours): 97%; IC50 ([2]; Table 29, HuVEC, electroporation, approximately 16 hours): 110 nM; percent inhibition of AR, 46.9 nM ([2]; Table 30, 46.9 nM, HuVEC, electroporation, approximately 16 hours): 22%; percent inhibition of AR, 187.5 nM ([2]; Table 30, 187.5 nM, HuVEC, electroporation, approximately 16 hours): 62%; percent inhibition of AR, 750.0 nM ([2]; Table 30, 750.0 nM, HuVEC, electroporation, approximately 16 hours): 92%; percent inhibition of AR, 3000.0 nM ([2]; Table 30, 3000.0 nM, HuVEC, electroporation, approximately 16 hours): 97%; IC50 ([2]; Table 30, HuVEC, electroporation, approximately 16 hours): 130 nM; percent inhibition of AR, 46.9 nM ([2]; Table 31, 46.9 nM, HuVEC, electroporation, approximately 16 hours): 24%; percent inhibition of AR, 187.5 nM ([2]; Table 31, 187.5 nM, HuVEC, electroporation, approximately 16 hours): 59%; percent inhibition of AR, 750.0 nM ([2]; Table 31, 750.0 nM, HuVEC, electroporation, approximately 16 hours): 92%; percent inhibition of AR, 3000.0 nM ([2]; Table 31, 3000.0 nM, HuVEC, electroporation, approximately 16 hours): 98%; IC50 ([2]; Table 31, HuVEC, electroporation, approximately 16 hours): 130 nM; percent inhibition of AR, 46.9 nM ([2]; Table 32, 46.9 nM, HuVEC, electroporation, approximately 16 hours): 19%; percent inhibition of AR, 187.5 nM ([2]; Table 32, 187.5 nM, HuVEC, electroporation, approximately 16 hours): 58%; percent inhibition of AR, 750.0 nM ([2]; Table 32, 750.0 nM, HuVEC, electroporation, approximately 16 hours): 89%; percent inhibition of AR, 3000.0 nM ([2]; Table 32, 3000.0 nM, HuVEC, electroporation, approximately 16 hours): 96%; IC50 ([2]; Table 32, HuVEC, electroporation, approximately 16 hours): 150 nM; percent inhibition of AR, 46.9 nM ([2]; Table 33, 46.9 nM, HuVEC, electroporation, approximately 16 hours): 21%; percent inhibition of AR, 187.5 nM ([2]; Table 33, 187.5 nM, HuVEC, electroporation, approximately 16 hours): 61%; percent inhibition of AR, 750.0 nM ([2]; Table 33, 750.0 nM, HuVEC, electroporation, approximately 16 hours): 90%; percent inhibition of AR, 3000.0 nM ([2]; Table 33, 3000.0 nM, HuVEC, electroporation, approximately 16 hours): 96%; IC50 ([2]; Table 33, HuVEC, electroporation, approximately 16 hours): 130 nM; percent inhibition of AR, 46.9 nM ([2]; Table 34, 46.9 nM, HuVEC, electroporation, approximately 16 hours): 14%; percent inhibition of AR, 187.5 nM ([2]; Table 34, 187.5 nM, HuVEC, electroporation, approximately 16 hours): 53%; percent inhibition of AR, 750.0 nM ([2]; Table 34, 750.0 nM, HuVEC, electroporation, approximately 16 hours): 84%; percent inhibition of AR, 3000.0 nM ([2]; Table 34, 3000.0 nM, HuVEC, electroporation, approximately 16 hours): 95%; IC50 ([2]; Table 34, HuVEC, electroporation, approximately 16 hours): 180 nM; percent inhibition of AR, 46.9 nM ([2]; Table 35, 46.9 nM, HuVEC, electroporation, approximately 16 hours): 13%; percent inhibition of AR, 187.5 nM ([2]; Table 35, 187.5 nM, HuVEC, electroporation, approximately 16 hours): 49%; percent inhibition of AR, 750.0 nM ([2]; Table 35, 750.0 nM, HuVEC, electroporation, approximately 16 hours): 84%; percent inhibition of AR, 3000.0 nM ([2]; Table 35, 3000.0 nM, HuVEC, electroporation, approximately 16 hours): 91%; IC50 ([2]; Table 35, HuVEC, electroporation, approximately 16 hours): 190 nM; percent inhibition of AR, 46.9 nM ([2]; Table 36, 46.9 nM, HuVEC, electroporation, approximately 16 hours): 1%; percent inhibition of AR, 187.5 nM ([2]; Table 36, 187.5 nM, HuVEC, electroporation, approximately 16 hours): 51%; percent inhibition of AR, 750.0 nM ([2]; Table 36, 750.0 nM, HuVEC, electroporation, approximately 16 hours): 83%; percent inhibition of AR, 3000.0 nM ([2]; Table 36, 3000.0 nM, HuVEC, electroporation, approximately 16 hours): 96%; IC50 ([2]; Table 36, HuVEC, electroporation, approximately 16 hours): 230 nM
